Assays:
α2 -adrenoceptor = target: T1, α2 -adrenoceptor (Rattus norvegicus, UniProt P22909); assay: α2-adrenoceptor antagonistic activity on the rat field stimulated vas deferens preparation (modified method of Drew)
T1 construct: rat field stimulated vas deferens preparation; from tissue; host or cells: rat vas deferens, field stimulated
T1 sequence (P22909 1-465): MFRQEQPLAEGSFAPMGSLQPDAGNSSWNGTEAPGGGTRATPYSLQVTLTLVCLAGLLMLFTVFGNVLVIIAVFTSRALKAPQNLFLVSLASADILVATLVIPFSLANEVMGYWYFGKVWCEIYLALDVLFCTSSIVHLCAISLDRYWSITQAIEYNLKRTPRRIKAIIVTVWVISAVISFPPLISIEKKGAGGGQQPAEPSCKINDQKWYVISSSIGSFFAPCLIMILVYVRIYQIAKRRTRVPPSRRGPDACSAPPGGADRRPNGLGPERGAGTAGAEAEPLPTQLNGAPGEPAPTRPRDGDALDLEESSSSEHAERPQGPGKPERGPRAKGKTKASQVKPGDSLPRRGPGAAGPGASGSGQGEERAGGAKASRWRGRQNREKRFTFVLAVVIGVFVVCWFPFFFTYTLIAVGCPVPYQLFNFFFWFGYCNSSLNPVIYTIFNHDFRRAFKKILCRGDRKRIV
From the text: (§1) The compounds of the invention may be tested for α2 -adrenoceptor antagonistic activity on the rat field stimulated vas deferens preparation using a modification of the method of Drew, Eur. J. Pharmac., 1977,42, 123-130 as described in our GB patent No. 2136804A Specification and for the α1 -antagonist activity by the method based on that of Gillespie Br. J. Pharmac 1972, 45 404-416, as also described in GB patent specification No. 2136804A.

α1 -adrenoceptor = target: T2, α1 -adrenoceptor (Rattus norvegicus, UniProt P43140); assay: α1-adrenoceptor antagonist activity by a method based on that of Gillespie; conditions: as described in GB 2136804A, read-out: pA2 for α1 -adrenoceptor antagonistic activity (converted)
T2 construct: method based on that of Gillespie Br. J. Pharmac 1972, 45 404-416; from tissue
T2 sequence (P43140 1-466): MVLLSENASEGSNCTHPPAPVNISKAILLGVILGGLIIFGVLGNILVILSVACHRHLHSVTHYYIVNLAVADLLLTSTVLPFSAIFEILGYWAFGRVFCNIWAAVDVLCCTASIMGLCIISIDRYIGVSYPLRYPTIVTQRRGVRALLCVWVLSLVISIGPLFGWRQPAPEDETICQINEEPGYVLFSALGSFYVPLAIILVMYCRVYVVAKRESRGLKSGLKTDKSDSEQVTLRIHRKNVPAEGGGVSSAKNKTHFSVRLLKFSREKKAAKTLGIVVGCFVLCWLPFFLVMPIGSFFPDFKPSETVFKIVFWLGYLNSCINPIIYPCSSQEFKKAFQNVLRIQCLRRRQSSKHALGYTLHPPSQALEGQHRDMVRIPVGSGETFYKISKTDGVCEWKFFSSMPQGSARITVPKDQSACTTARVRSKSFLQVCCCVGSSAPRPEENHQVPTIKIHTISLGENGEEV
From the text: as §1

## CS(=O)(=O)NCCN([C@@H]1CCN2CCc3c(oc4ccccc34)[C@@H]2C1)S(C)(=O)=O (relative stereo) [Example 2, N-[(2β,12bα)-1,3,4,6,7,12b-Hexahydro-2H-benzo[b]furo [2,3-a]quinolizin-2-yl]-N-(2-methanesulphonamidoethyl) methanesulphonamide]
α2 -adrenoceptor; rat field stimulated vas deferens preparation, read-out: pA2 for α2 -adrenoceptor antagonist activity (converted)
  Kb: 8.51 nM
α2 -adrenoceptor; ratio from α2 and α1 pA2 values
  α2 /α1 selectivity [antilog of (α2 pA2 - α1 pA1)]: 32
α1 -adrenoceptor
  Kb: 275 nM

Reference: patent US4788202A, “Sulphonamide derivatives as α2 -adrenoceptor antagonists” (John Wyeth & Brother Limited, priority 1985, dated 1988)
